Experimental findings from article PMC10424441, “Macrophage targeted polymeric curcumin nanoparticles limit intracellular survival of Mycobacterium tuberculosis through induction of autophagy and augment anti-TB activity of isoniazid in RAW 264.7 macrophages” (Frontiers in Immunology, 2023) are described below.

Data set [1] has as its system GFP-MTB H37Rv infected RAW 264.7 cells. The data set is described as follows: Confocal microscopy of phagosome lysosome fusion. The data set is classed as cell-based, Murine. The note with it: 10μM and 20μM, 48h, MOI 5.
Protocol: RAW 264.7 cells (5 x 10^5 cells/ml) were seeded on sterile coverslips in 6-well plates and incubated at 37°C for overnight in CO2 incubator. Next day cells were infected with GFP-MTB H37Rv at MOI 5 and treated with CMN for 48h. Lysotracker Red (Thermo) was added to each well at concentration of 70nM for 3h prior to the end of incubation. Coverslips were washed twice with sterile 1XPBS and fixed with 4% para formaldehyde. Cover slips were mounted on glass slides using Prolong® Gold Antifade (Thermo) mounting reagent containing DAPI and images were acquired on Zeiss LSM 510 Meta confocal microscope (Carl Zeiss) equipped with 63X oil immersion lens. Optical sections with Z-stack were taken to evaluate colocalization and images were deconvolved.
The subject of a further data set is MTB H37Rv. The data set is described as follows: Macrophage infection and CFU assay (intracellular survival in RAW 264.7). Type of data set: cell-based, Mycobacterium tuberculosis. As to conditions: for Percent survival of MTB (percentage of control): adjunctive action experiment, dose not given.
Data set [2] can be described thus: Oral pharmacokinetics study. As to conditions: 50 mg/kg.
Data set [3] deals with Caspase-3, cleaved caspase-3, cleaved PARP, Bax and Bcl-2 in RAW cells with or without MTB infection. The data set can be described thus: Western blot of pro and anti-apoptotic proteins. Type of data set: cell-based, Murine. The note with it: 10μM and 20μM. The protocol:
(§1) Cells were harvested, washed thrice with 1X cold PBS and lysed in RIPA lysis buffer containing 1% protease inhibitor cocktail (Sigma) and 3% phosphatase inhibitor cocktail (Sigma). Total protein concentration in the cell lysate was estimated by Bradford reagent (Sigma). Samples containing equal amounts of protein (80μg/well) were run on 10% SDS PAGE followed by electro transfer on nitrocellulose membrane. Membranes were blocked with blocking buffer (5% w/v skimmed milk in 1X TBST) for 30 minutes followed by incubation with respective antibodies for 4 h at room temperature. Further, membranes were washed thrice with 1xTBST for 15 minutes and incubated appropriate secondary antibody HRP conjugate for 2 h and blots were developed with Enhanced Chemiluminescence kit (Roche) according to manufacturer’s protocol. Densitometric analysis was performed using ImageJ software.

Data set [4] relates to MDR clinical isolate of MTB, strain-1. Type of data set: cell-based, Mycobacterium tuberculosis. The note with it: 10μM and 20μM, 48 and 72h.
For data set [5], the system named is LC3-I to LC3-II conversion and p62 degradation in RAW 264.7 cells. The data set is described as follows: Western blot of autophagy markers, uninfected cells. Type of data set: cell-based, Murine. The note with it: 10μM and 20μM, 24h. The protocol: as §1
Data set [6] has as its system MDR clinical isolate of MTB, strain-2. Type of data set: cell-based, Mycobacterium tuberculosis. As to conditions: 10μM and 20μM, 48 and 72h.
For data set [7], the system named is LC3-I to LC3-II conversion and p62 degradation in MTB H37Rv infected RAW cells. The data set is described as follows: Western blot of autophagy markers, MTB infected cells. Type of data set: cell-based, Murine. The note with it: 10μM and 20μM, MTB H37Rv infected RAW macrophages. As to the method:
as §1

Where two headings read alike, the source gives them in different places.

As to `COc1cc(C=CC(=O)CC(=O)C=Cc2ccc(O)c(OC)c2)ccc1O` [CMN, 1,7-bis (4-hydroxy-3-methoxy-phenyl) hepta-1,6-diene-3,5-dione], the “Phagosome lysosome fusion (co localization of GFP and Lysotracker Red)” value in data set [1] is on record as “formation of yellow compartment in both the CMN treatment groups after 48h”. Further, the “Percent survival (percentage of control)” value in the data set on MTB H37Rv (10μM, 48h, in presence of autophagy inhibitor 3-MA) was determined as 87.1 ± 6.6%; with MTB H37Rv (10μM, 48h post infection, RAW 264.7, MOI 5), 57 ± 4.6%; in the data set with MTB H37Rv (10μM, 72h, in presence of autophagy inhibitor 3-MA), 80.1 ± 6.8%; with MTB H37Rv (10μM, 72h post infection, RAW 264.7, MOI 5) it was 49.1 ± 7.8%; in the data set on MTB H37Rv (20μM, 48h, RAW 264.7, MOI 5), 47.7 ± 4.1%; with MTB H37Rv (20μM, 48h, in presence of autophagy inhibitor 3-MA) it was 87.1 ± 4.6%. Also, the “Percent survival (percentage of control)” value with MTB H37Rv (20μM, 72h, RAW 264.7, MOI 5) is 45.6 ± 6.1%; in the data set with MTB H37Rv (20μM, 72h, in presence of autophagy inhibitor 3-MA), 85.7 ± 8.8%. Further, the “Percent survival of MTB (percentage of control)” value in the data set with MTB H37Rv (48h of treatment) is 41.6 ± 3.5%; in the data set with MTB H37Rv (72h of treatment) it was 34.8 ± 3.0%. Moreover, in data set [2] (BALB/c, mouse, in vivo, po), the AUC(0-inf) turned out to be 170 ng·h/mL. For the same compound, the AUC(0-t) in data set [2] (BALB/c, mouse, in vivo, po) came out at 119 ng·h/mL. In addition, in data set [2] (BALB/c, mouse, in vivo, po), the peak level (Cmax) was 45.2 ng/mL. The compound further showed an MRT inf in data set [2] (BALB/c, mouse, in vivo, po) of 5.07 h. Moreover, the Tmax in data set [2] (BALB/c, mouse, in vivo, po) came to 15 min. This compound had a half-life in data set [2] (BALB/c, mouse, in vivo, po) of 220 min. Also, in data set [2] (BALB/c, mouse, in vivo, po), the k el was 5.28e-05 s⁻¹. The “Time up to which CMN was detected in plasma after administration” value in data set [2] (oral, BALB/c mice) is reported as “up to 8 h”. The “Expression of anti-apoptotic protein Bcl-2” value in data set [3] (24h, RAW cells with or without MTB infection) is given as “downregulation”. Besides, the “Expression of pro apoptotic proteins cleaved caspase-3, cleaved PARP and Bax” value in data set [3] (24h post treatment, compared to untreated cells) is “upregulated”. For the same compound, the Percent survival result in data set [4] was “inhibited the percent survival”; in data set [4] (treatment with 3-MA), “increase in the percent survival that was comparable to untreated controls”; in data set [6], “inhibited the percent survival”; in data set [6] (treatment with 3-MA), “increase in the percent survival that was comparable to untreated controls”. Further, in data set [5], the “Conversion of LC3-I to LC3-II (immunoblotting)” value was “conversion of LC3-I to II at 10μM and 20μM dose”. In addition, the “Degradation of p62 (immunoblotting)” value in data set [5] is “p62 degradation at 10μM and 20μM dose”. Moreover, in data set [7], the “Autophagy induction (LC3-I to LC3-II conversion and p62 degradation)” value is on record as “autophagy induction in MTB infected cells after CMN treatment”.

As for `NNC(=O)c1ccncc1` [INH, isoniazid], the “Percent survival of MTB (percentage of control)” value in the data set with MTB H37Rv (48h of treatment) turned out to be 35.1 ± 2.8%; in the data set with MTB H37Rv (72h of treatment), 22.9 ± 4.5%.
